The values that follow come from publication PMC12019328, “Discovery of an ApoE4-targeted small-molecule SirT1 enhancer for the treatment of Alzheimer’s disease” (Scientific Reports, 2025).

This series is described as follows: Liver microsome stability. Type of series: in vitro ADME. As to conditions: pH 7.4; human liver microsomes 0.5 mg/mL, NADPH, 37 °C; read-out: Microsomal stability t1/2. On the procedure:
page 6: A03 DDL-214 Figure S3B. SirT1 protein levels in N2a-E4 cells after A03 and DDL-214 treatment. Compound treatment was done at 5 and 50 µM. SirT1 levels were measured by AlphaLISA followed and normalized to protein concentration DDL-218 Physiochemical Properties Physiochemical properties of DDL-218 are shown in Table S2. Brain Tissue Binding [fu,bound (%)] Brain tissue was homogenized in PBS (pH 7.4) (1: 3 weight(mg)/volume(µL)) and the protein concentration of was determined using the Micro BCA™ Protein Assay Kit (Thermo Fisher Scientific, Cat#23235). Brain homogenate was diluted to 20 mg/mL in PBS (pH 7.4) and added to Slide-A-Lyzer™ MINI Dialysis Devices, 10K MWCO dialysis cups (Thermo Fisher Scientific, Cat#PI88401) in 48-well plate containing PBS (500 µL; pH 7.4). 1 µL of 1 mM compound was added to the brain homogenate (Final Concentration: 2 µM compound, 0.5% DMSO) and incubated on a rocker for 4.5 hours at 37 °C. […] The % of the unbound drug (fu,bound) was calculated using the following equation: fu,bound = [normalized peak area in buffer side / normalized peak area in brain side] x 100 Liver Microsome Stability [t1/2 (min)] […] An aliquot (50 µL) of each supernatant was analyzed by LC-MS/MS. […] Aliquots (50 µL) of supernatant were analyzed by LC-MS/MS to create the standard curve. […]

Take `CC(N)C(=O)OC(C)(C)Cc1ccncc1` (stereo not shown) [DDL-218]: the half-life is above 2.33 h.
